Reference: US20160115540A1, “PRODRUGS AND DRUGS” (Biogen MA Inc., priority 2013, published 2016)
Counter-ions that a name gives are not always drawn.

Tested on: kidney
Experiment: Transcriptional profiling on Affymetrix GeneChips, single dose, naïve mice: kidney
Format: in vivo, C57BL/6 mice
Conditions: kidney; 100MMF-vs-Veh, 12 h
Method: Treated mice were sacrificed at 2, 7, or 12 hours. Tissues (liver, spleen, kidney, jejunum, cortex, hippocampus, striatum and whole blood) were collected and analyzed by transcriptional profiling on mouse Affymetrix GeneChips.
Tissues (liver, spleen, kidney, jejunum, cortex, hippocampus, striatum and whole blood) were collected and analyzed by transcriptional profiling on mouse Affymetrix GeneChips.
Animals were exposed to CO2 and whole blood collected via cardiac puncture. Two 100 μl aliquots of whole blood were collected in 1.5 mL microcentrifuge tubes and snap frozen in liquid nitrogen. Peripheral (liver, spleen, kidney and jejunum) and CNS brain (cerebellum, hippocampus, striatum and cortex) tissues were harvested and snap frozen in liquid nitrogen, with special care taken to collect tissues of similar size and from the same location. All samples were stored at −80° C. until RNA extraction was conducted.
For RNA preparation, frozen tissues were placed in 2 mL RNAse-free 96-well blocks with 1.5 mL QIAzol Lysis Reagent (QIAgen) and a 3.2 mm stainless steel bead (BioSpec Products, Bartlesville, Okla.). Tissues were disrupted for four cycles of 45 seconds in a Mini-Beadbeater (Biospec Products). RNA was extracted in chloroform and the aqueous phase was mixed with an equal volume of 70% ethanol. Extracted RNA was applied to RNeasy 96 plates and purified by the spin method according to the manufacturer's protocol (RNeasy 96 Universal Tissue Protocol, QIAgen, Hilden Germany).
Automated sample amplifications and biotin labelings were carried out using the NuGEN Ovation RNA Amplification system V2 (Cat #3100), Ovation WB reagent (Cat #1300) and Encore Biotin module (Cat #4200) (NuGEN Technologies, Inc, San Carlos, Calif.) according to manufacturer's recommendations using an Arrayplex automated liquid handler (Beckman Coulter, Indianapolis, Ind.). Two micrograms of biotin labeled sscDNA probe were hybridized to Affymetrix GeneChip Affymetrix HT_MG-430_PM plate arrays with modified conditions as described in Allaire et al. Washing and staining of the hybridized arrays were completed as described in the GeneChip Expression analysis technical manual for HT plate arrays using the Genechip® Array Station (Affymetrix, Santa Clara, Calif.) with modifications as described in Allaire et al. The processed GeneChip® plate arrays were scanned using GeneTitan scanner (Affymetrix, Santa Clara, Calif.).
Affymetrix scans were subject to quality control (QC) measures. These tests included a visual inspection of the distribution of raw signal intensities and an assessment of RNA degradation, relative log expression (RLE), and normalized unsealed standard error (NUSE). All sample scans that passed these QC metrics were included in the analysis.
All CEL files were subjected to GC-content-based Robust Multi-array Average (GCRMA) normalization (version 2.20.0) (Irizarry R A, et al. Nucleic Acids Res 2003; 31:e15; Li C, et al. Genome Biol 2001; 2:[…]0032). Expression levels were log (base 2) transformed.
All calculations and analyses were carried out using R (version 2.11.1) and Bioconductor computational tools (Gentleman R. Springer Science+Business Media 2005).

## COC(=O)/C=C/C(=O)O [MMF, monomethyl fumarate]
  FC 9130221J18Rik (1446368_PM_at): −1.53
  FC AB099516 /// Higd1c (1447356_PM_at): −1.57
  FC Abcc3 (1428988_PM_at): 1.64
  FC Abcc4 1443870_PM_at: 2.07
  FC Acot1 (1449065_PM_at): 1.59
  FC Acsm2 (1427224_PM_at): −1.52
  FC Agps 1434919_PM_at: −1.80
  FC Akr1b8 (1448894_PM_at): 1.68
  FC Akr1c19 (1455454_PM_at): 2.00
  FC Alas1 1424126_PM_at: 2.02
  FC Alas1 (1455282_PM_x_at): 1.70
  FC Alcam 1426300_PM_at: 2.83
  FC Alcam 1426301_PM_at: 2.09
  FC Alcam 1437467_PM_at: 1.93
  FC Arg2 (1438841_PM_s_at): 2.63
  FC Arhgap26 (1440688_PM_at): −1.57
  FC Asns 1433966_PM_x_at: 2.49
  FC Asns 1451095_PM_at: 2.87
  FC Atp13a3 1442145_PM_at: 1.62
  FC B4galt5 (1433617_PM_s_at): −1.51
  FC BC060267 (1441979_PM_at): 1.74
  FC Bcat1 1430111_PM_a_at: −2.07
  FC Bcat1 1450871_PM_a_at: −2.20
  FC Bcat1 1455699_PM_at: −2.27
  FC Blvrb (1451386_PM_at): 2.23
  FC C3 (1423954_PM_at): 2.34
  FC C8a (1428012_PM_at): −1.51
  FC Cbr1 (1460196_PM_at): 2.10
  FC Cbr3 (1427912_PM_at): 7.02
  FC Cdkn1a (1424638_PM_at): 2.73
  FC Chrdl1 (1456722_PM_at): −1.55
  FC Cldn1 (1437932_PM_a_at): 1.57
  FC D16Ertd778e 1445089_PM_at: −2.25
  FC Dcdc2a (1459661_PM_at): 1.69
  FC Dnase2a (1430135_PM_at): 2.15
  FC Dpys (1436291_PM_a_at): 1.51
  FC Endou 1449937_PM_at: 1.89
  FC Ep400 (1449610_PM_at): −1.67
  FC Esr1 1460591_PM_at: −1.54
  FC Esr1 (1435663_PM_at): −1.75
  FC Fga (1424279_PM_at): 1.79
  FC Fgf1 1450869_PM_at: −1.58
  FC G6pdx (1448354_PM_at): 1.70
  FC Gclc (1455959_PM_s_at): 1.64
  FC Gjb1 1448766_PM_at: 1.81
  FC Gjb1 (1448767_PM_s_at): 1.67
  FC Gm5101 (1442588_PM_at): −1.50
  FC Gpr135 1441944_PM_s_at: 1.59
  FC Gpr135 1459274_PM_at: 1.65
  FC Gpt (1426502_PM_s_at): 1.51
  FC Gstm1 (1425627_PM_x_at): 1.56
  FC Gstm1 (1448330_PM_at): 1.54
  FC Gstm4 (1424835_PM_at): 1.70
  FC Gstp1 (1449575_PM_a_at): 1.54
  FC Havcr1 1434716_PM_at: 4.79
  FC Hfe 1450702_PM_at: 1.67
  FC Hist1h1c (1438204_PM_at): 1.82
  FC Hist1h2be 1440330_PM_at: 2.92
  FC Hist1h2be (1445565_PM_at): 2.48
  FC Ikbkg 1435646_PM_at: 1.76
  FC Ikbkg 1454690_PM_at: 1.54
  FC Kif20b 1439695_PM_a_at: −2.85
  FC Klk1b21 (1451607_PM_at): 1.57
  FC Lcp1 1448160_PM_at: 1.54
  FC Lpar2 1442291_PM_at: 1.93
  FC Lrat (1444487_PM_at): 1.72
  FC Maf (1435828_PM_at): 1.53
  FC Maf (1447849_PM_s_at): 1.54
  FC Myo5a (1431320_PM_a_at): −2.35
  FC Myo5a (1436051_PM_at): −2.04
  FC Nfia (1446742_PM_at): −1.74
  FC Nqo1 (1423627_PM_at): 2.11
  FC Pank1 1457110_PM_at: −1.73
  FC Pank2 1452733_PM_at: −1.97
  FC Pgd 1423706_PM_a_at: 2.27
  FC Pgd 1438627_PM_x_at: 1.83
  FC Pgd (1436771_PM_x_at): 2.03
  FC Pgd (1437380_PM_x_at): 2.05
  FC Phlda3 (1449002_PM_at): 1.81
  FC Pigl (1440965_PM_at): 1.52
  FC Pir (1429001_PM_at): 3.08
  FC Ptprr (1426047_PM_a_at): 1.69
  FC Rcor3 (1428343_PM_at): −1.51
  FC Reep6 (1430128_PM_a_at): 1.51
  FC Rnf24 1436101_PM_at: −2.01
  FC Slc5a3 (1440227_PM_at): −1.50
  FC Slc8a1 (1437675_PM_at): −1.86
  FC Slc9a8 1454865_PM_at: −2.40
  FC Slc22a14 (1440058_PM_at): 1.54
  FC Slc39a8 (1448482_PM_at): −1.55
  FC Slc48a1 (1450409_PM_a_at): 1.53
  FC Slco2a1 (1444242_PM_at): 1.63
  FC Slco4c1 (1437870_PM_at): −1.69
  FC Slco4c1 (1460616_PM_at): −2.08
  FC Smarca2 (1452333_PM_at): −1.60
  FC Srxn1 (1425351_PM_at): 1.89
  FC Srxn1 (1426875_PM_s_at): 1.91
  FC Srxn1 (1451680_PM_at): 2.09
  FC Tmc5 (1452934_PM_at): 1.91
  FC Tmie (1443964_PM_at): 1.65
  FC Trim16 (1460629_PM_at): 1.51
  FC Txnrd1 (1424487_PM_x_at): 1.74
  FC Vps8 (1434050_PM_at): −1.84
  FC Vps8 (1454810_PM_s_at): −1.55
